Laboratory results as given in patent publication US20250339409A1, “USES OF PAN BET INHIBITORS” (VYNE THERAPEUTICS INC., priority 2021, published 2025).
Like-named read-outs stand apart in the source and are kept apart here.

Key:
[1] = Homogeneity of BETi1 dispersions in NaCMC/saline by light microscopy; type: physicochemical; conditions: suspensions in NaCMC solutions
Description: BETi1 is dispersed in 0.5% Sodium Carboxymethyl Cellulose (NaCMC) solution in NaCl saline (0.9% NaCl in water) to receive 4 mg/gram dispersion. […] All dispersions are thermally sterilized.
BETi suspensions at 4 mg/g (0.4%), at 0.4 mg/g (0.04%) and at 0.04 mg/g (0.004%) (Table 38) were prepared in NaCMC solutions as set out in Experimental Method N. The homogeneity (including absence of aggregates of solid particles) of the dispersion was analyzed and confirmed by light microscopy as shown in FIG. 14A-C. […] In the sample at 0.04 mg/g mainly larger crystals were observed, since the smaller ones were probably dissolved.

[2] = Chemical and physical stability of formulations (HPLC, polarized light microscopy); type: physicochemical; conditions: 3 m at 25° C.
Description: For Polarized Light Microscopy evaluation, the samples of the formulations in petrolatum are heated to 55° C. to melt most of the petrolatum crystals and make visible crystals of API. The API crystals are measured and photomicrographs are taken.
The microscopy samples of API are prepared by dispersing some (unmeasured amount) of API powder in a drop of mineral oil. The dispersion is done by a spatula. The concentration of API in mineral oil is unknown.
The stability of prepared formulations was assessed by HPLC testing of samples of two formulations, prepared with API from two different sources. […] The area % of the main peak in the samples after temperature exposure was compared to area % of the main peak in initial samples of the same batches and in the corresponding APIs. The samples exposed to stability challenge were also evaluated for presence of new peaks, not observed in API or in initial samples.

[3] = Toxicokinetics in dogs after intra-articular injection: synovial fluid concentrations; type: in vivo, Beagle dogs; set-up: Synovial concentration of BETi1: unit not given here; conditions: for AUC(0-t) / Cmax / Tmax / concentration at 4 weeks: Beagle, dog, synovial fluid; for AUC(0-t): read-out: Synovia AUC0-672 h; for concentration at 4 weeks: other: intra-articular injection, read-out: synovial level at four weeks post-treatment
Description: 16 Beagle dogs (8 males, 8 females) were assigned to four treatment groups to determine toxicity of BETi1 formulations following intra-articular injection.
The experimental groups are presented below: • Group 1: Control; 0 mg of BETi1/animal dose • Group 2: Low Dose; 7.5 mg of BETi1/animal dose • Group 3: Mid Dose; 75 mg of BETi1/animal dose • Group 4: High Dose; 150 mg of BETi1/animal dose
The control and BETi1 dose formulations were comprised as follows: Control: Vehicle (0.5% sodium carboxymethylcellulose; 0.1% polysorbate 80 in saline) • Low Dose: 0.75% w/w BETi1 suspended in Vehicle • Mid Dose: 7.5% w/w BETi1 suspended in Vehicle • High Dose: 15% w/w BETi1 suspended in Vehicle
Study dogs were administered control treatment or treatment with a BETi1 formulation via intra-articular injection only to their right knee joints. Dosage volume was 1 mL/knee.
Approximately 80 μL of synovial fluid was collected from animals from the right knee joint and placed into appropriately labeled tubes onto wet ice. Synovia was then transferred into labeled clear polypropylene tubes and frozen in the upright position over dry ice and stored in a freezer set to maintain <−60° C. until shipped on dry ice for analysis.
Quantification of BETi1 concentrations in plasma and synovial fluid was performed using a qualified liquid chromatographic triple quadrupole mass spectrometric (LC-MS/MS) method. Synovial fluids were centrifuged before analysis.
Toxicokinetic (TK) analysis of BETi1 plasma concentration-time and synovial fluid concentration-time data was performed. TK parameter values including maximum plasma/synovial fluid concentrations (Cmax), time to reach maximum concentrations (Tmax), and area under the plasma/synovial fluid concentrations vs. time curve (AUC) from time zero to 672-hour (AUC0-672h) was determined. Values that were below the lower limit of quantification (BLQ) were set to zero in the calculation of mean concentrations. When more than half of individual values at a single time point were BLQ, mean values were reported as BLQ.

Cn1cc(-c2cccc(O)c2Oc2ccccc2)c2cc[nH]c2c1=O [BETi1]
aggregates of API particles in dispersions [1]: no visible aggregates of API particles | degradation in compositions comprising suspended BETi1 [2]: no degradation of BETi1 being observed | Synovial concentration of BETi1 ([3]; 7.5 mg intra-articular, 72 h (day 3)): 125.625 | Synovial concentration of BETi1 ([3]; 7.5 mg intra-articular, 336 h (day 14)): 0 | Synovial concentration of BETi1 ([3]; 7.5 mg intra-articular, 504 h (day 21)): 0 | Synovial concentration of BETi1 ([3]; 7.5 mg intra-articular, 672 h (day 28), in ng/mL): 0.685 | Synovial concentration of BETi1 ([3]; 7.5 mg intra-articular, […] (day 7)): 1.58 | Synovial concentration of BETi1 ([3]; 75 mg intra-articular, 72 h (day 3)): 27050 | Synovial concentration of BETi1 ([3]; 75 mg intra-articular, 336 h (day 14)): 6805 | Synovial concentration of BETi1 ([3]; 75 mg intra-articular, 504 h (day 21)): 937 | Synovial concentration of BETi1 ([3]; 75 mg intra-articular, 672 h (day 28)): 316 | Synovial concentration of BETi1 ([3]; 75 mg intra-articular, […] (day 7)): 33700 | Synovial concentration of BETi1 ([3]; 150 mg intra-articular, 72 h (day 3)): 47600 | Synovial concentration of BETi1 ([3]; 150 mg intra-articular, 336 h (day 14)): 18070 | Synovial concentration of BETi1 ([3]; 150 mg intra-articular, 504 h (day 21)): 7765 | Synovial concentration of BETi1 ([3]; 150 mg intra-articular, 672 h (day 28)): 4375 | Synovial concentration of BETi1 ([3]; 150 mg intra-articular, […] (day 7)): 36000 | AUC(0-t) ([3]; 7.5 mg/animal, Male, Study Day 1): 25.4 µg·h/mL | Cmax ([3]; 7.5 mg/animal, Male, Study Day 1, read-out: Synovia Cmax): 244 ng/mL | Tmax ([3]; 7.5 mg/animal, Male, Study Day 1, read-out: Synovia Tmax): 120 h | AUC(0-t) ([3]; 75 mg/animal, Female, Study Day 1): 6090 µg·h/mL | Cmax ([3]; 75 mg/animal, Female, Study Day 1, read-out: Synovia Cmax): 43700 ng/mL | Tmax ([3]; 75 mg/animal, Female, Study Day 1, read-out: Synovia Tmax): 120 h | AUC(0-t) ([3]; 75 mg/animal, Male, Study Day 1): 7890 µg·h/mL | Cmax ([3]; 75 mg/animal, Male, Study Day 1, read-out: Synovia Cmax): 47600 ng/mL | Tmax ([3]; 75 mg/animal, Male, Study Day 1, read-out: Synovia Tmax): 120 h | AUC(0-t) ([3]; 150 mg/animal, Female, Study Day 1): 11300 µg·h/mL | Cmax ([3]; 150 mg/animal, Female, Study Day 1, read-out: Synovia Cmax): 46100 ng/mL | Tmax ([3]; 150 mg/animal, Female, Study Day 1, read-out: Synovia Tmax): 204 h | AUC(0-t) ([3]; 150 mg/animal, Male, Study Day 1): 12500 µg·h/mL | Cmax ([3]; 150 mg/animal, Male, Study Day 1, read-out: Synovia Cmax): 63200 ng/mL | Tmax ([3]; 150 mg/animal, Male, Study Day 1, read-out: Synovia Tmax): 120 h | concentration at 4 weeks ([3]; both sexes, 75 mg/animal, intra-articular, 75 mg): 1 µM | concentration at 4 weeks ([3]; both sexes, 150 mg/animal, intra-articular, 150 mg): 13 µM | Tmax ([3]; both sexes, intra-articular, calculated, read-out: Tmax, synovial fluid (converted)): ~120 h | Cmax ([3]; both sexes, intra-articular, highest dose (150 mg), read-out: Cmax, synovial fluid): 50000 ng/mL
